# Patent US20130274127A1, “GENE EXPRESSION MARKERS FOR PREDICTION OF RESPONSE TO PHOSPHOINOSITIDE 3-KINASE INHIBITORS” (GENOMIC HEALTH, INC., priority 2012, published 2013)
# Legend:
# [1] = tested on: MDA-MB-231 tumor cell line; assay: siRNA knockdown and cell viability assay; format: cell-based, human
# [2] = tested on: OVCAR-4 tumor cell line; assay: siRNA knockdown and cell viability assay; format: cell-based, human
compound,measurement,setting,value
Cn1c(=O)n(-c2ccc(C(C)(C)C#N)cc2)c2c3cc(-c4cnc5ccccc5c4)ccc3ncc21 [NVP-BEZ235],Sensitivity to NVP-BEZ235 (cell viability) upon loss of OGT expression,[1]; OGT siRNA + 10 nM NVP-BEZ235,increased sensitivity
same,Sensitivity of cell line to NVP-BEZ235,[1]; data not shown,resistant
same,Sensitivity to NVP-BEZ235 (cell viability) upon loss of OGT expression,[2]; OGT siRNA + 10 nM NVP-BEZ235,no effect
same,Sensitivity of cell line to NVP-BEZ235,[2]; data not shown,highly NVP-BEZ235-resistant
